PMC9097471, “Development of Selective Phosphatidylinositol 5-Phosphate 4-Kinase γ Inhibitors with a Non-ATP-competitive, Allosteric Binding Mode” (Journal of Medicinal Chemistry, 2022)
Converted amounts (≈) assume the structure as drawn. Read-outs that look alike come from different tables or passages of the source.

Key:
PI5P4Kγ+ = target: T1, PI5P4Kγ+ (Homo sapiens, UniProt Q8TBX8, D138G/D197E/E133P/E135D/E153T/E196G/G136S/G139A/N195G/S132L/S134N); assay: ADP-Glo inhibition assay; assay type: biochemical; settings: for IC50: ADP-Glo
T1 construct: GST (N, cleaved yes); made in house; host or cells: E. coli BL21(DE3), pGEX6P
T1 sequence (Q8TBX8 with tags, fused parts or gaps INS131LPN/S132D/E133S/S134Q/E135A/G136R/D138G/G139A/E153T/N195G/E196G/D197E): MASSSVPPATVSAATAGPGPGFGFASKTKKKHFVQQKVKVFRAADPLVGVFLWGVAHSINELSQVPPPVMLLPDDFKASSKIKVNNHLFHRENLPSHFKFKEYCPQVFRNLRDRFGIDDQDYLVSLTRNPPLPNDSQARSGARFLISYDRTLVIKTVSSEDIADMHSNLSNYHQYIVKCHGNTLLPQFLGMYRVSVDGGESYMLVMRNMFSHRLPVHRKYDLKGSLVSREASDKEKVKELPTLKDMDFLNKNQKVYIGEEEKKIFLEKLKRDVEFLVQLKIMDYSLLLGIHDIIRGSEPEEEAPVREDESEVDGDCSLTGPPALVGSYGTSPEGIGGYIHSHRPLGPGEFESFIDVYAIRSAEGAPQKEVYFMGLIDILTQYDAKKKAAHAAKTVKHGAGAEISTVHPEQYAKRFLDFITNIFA
Description: Recombinant mutant PI5P4Kγ+ was prepared essentially as described previously.[25] […] Cultures were induced with 0.4 mM IPTG and probe sonicated in the presence of protease inhibitors. The GST fusion protein of PI5P4Kγ+ was harvested by binding to glutathione sepharose beads (Cytiva) and cleaved in situ with 50U of PreScission protease (Cytiva) for 4 h at 4 °C. The cleaved protein was further purified by size-exclusion chromatography (AKTA Pure, Cytiva). The protein purity was confirmed by sodium dodecyl sulphate–polyacrylamide gel electrophoresis, and the concentration was determined by colorimetric assay (Bio-Rad).
(§1) Statistical analysis was performed using nonparametric testing in Prism 8 (GraphPad). Activity pIC50 values and in vivo binding pEC50 values were estimated using a 4-parameter fit (Dotmatics).

[1] = Liver microsomal stability; assay type: in vitro ADME; settings: liver microsomes; Human liver microsomal hepatic stability; read-out: HLM t1/2
Plasma protein binding = assay type: in vitro ADME; settings: Mouse plasma protein binding; read-out: mPPB (converted)
Description: Plasma protein binding analysis was performed by Charles River Laboratories Inc. (ADME-SOP-90). Briefly, compounds in DMSO (10 µM, 0.5% DMSO final) were added to mouse plasma and dialysed against buffer for 4 hours at 37 °C. The compound concentration in each of the plasma and buffer compartments was determined by mass spectrometry and used to calculate the percentage compound bound. […]

Caco-2 cell permeability = assay type: in vitro ADME; settings: human; for Papp A→B at 1 h, 10 µM: Caco-2, apical-to-basolateral
Description: Permeability: bi-directional Caco-2 cell permeability was performed by Charles River Laboratories Inc. (ADME-SOP-49). Briefly, compounds were administered at 10 µM (1% DMSO final) to the apical or basolateral side of a polarised Caco-2 cell monolayer, then incubated at 37 °C for 60 minutes before appearance on the opposite side of the monolayer was determined by mass spectrometry. The efflux ratio (ER) is calculated from the ratio of B-A […]

Kinetic solubility = assay type: physicochemical; settings: PBS buffer, PBS pH 7.4
Description: Kinetic solubility analysis was performed by Charles River Laboratories Inc. (ADME-SOP-01). Compound in
DMSO at 10 mM was diluted to 200 µM in both DMSO and buffer (0.1 M PBS, pH 7.4, 2% DMSO final), and
an aliquot of the 200 µM DMSO solution was diluted to 10 µM, and all dilutions were equilibrated for 2 hours. […]
Compound 9 was purchased from Am binter (Amb16536894) and was determined by UPLC to have purity >95%.
All other compounds were synthesised as described below , and all tested compounds have purity >95% by UPLC

PI5P4Kγ-WT [2] = target: T2, PI5P4Kγ-WT (Homo sapiens, UniProt Q8TBX8); assay: Thermal shift assay; settings: read-out: ΔTm PI5P4Kγ WT, thermal shift, compound 63 μM
T2 sequence (Q8TBX8 1-421): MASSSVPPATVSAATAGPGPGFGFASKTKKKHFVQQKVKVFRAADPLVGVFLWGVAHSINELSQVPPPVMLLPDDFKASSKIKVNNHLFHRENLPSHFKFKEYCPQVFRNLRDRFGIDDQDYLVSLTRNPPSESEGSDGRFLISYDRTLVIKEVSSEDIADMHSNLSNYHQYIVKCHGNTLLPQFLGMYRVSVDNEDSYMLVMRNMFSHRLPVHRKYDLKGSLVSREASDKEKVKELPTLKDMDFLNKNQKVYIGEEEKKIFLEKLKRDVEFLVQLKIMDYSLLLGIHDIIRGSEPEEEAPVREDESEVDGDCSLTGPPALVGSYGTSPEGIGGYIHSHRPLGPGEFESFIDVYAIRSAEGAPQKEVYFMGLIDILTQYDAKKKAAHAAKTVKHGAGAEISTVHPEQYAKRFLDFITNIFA

PI5P4Kα-WT = target: T3, PI5P4Kα-WT (Homo sapiens, UniProt P48426); assay: ADP-Glo inhibition assay; settings: for PI5P4Kα pIC50: ADP-Glo
T3 sequence (P48426 1-406): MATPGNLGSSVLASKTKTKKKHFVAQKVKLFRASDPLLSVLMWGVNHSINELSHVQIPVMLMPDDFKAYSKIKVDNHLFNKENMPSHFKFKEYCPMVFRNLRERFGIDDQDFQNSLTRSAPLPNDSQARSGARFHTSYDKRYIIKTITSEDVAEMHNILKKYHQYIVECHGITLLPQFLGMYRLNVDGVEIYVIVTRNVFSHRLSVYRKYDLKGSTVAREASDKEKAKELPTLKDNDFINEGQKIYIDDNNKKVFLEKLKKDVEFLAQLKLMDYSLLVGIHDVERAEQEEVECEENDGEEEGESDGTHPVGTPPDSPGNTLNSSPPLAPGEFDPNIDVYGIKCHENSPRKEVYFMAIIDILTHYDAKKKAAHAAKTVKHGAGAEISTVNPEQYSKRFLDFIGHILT
Description: (§2) To enable direct comparisons, Promega’s ADP-Glo reporter assay was developed using a mutant form of the kinase. […] To mitigate concerns about being misled by the use of the PI5P4Kγ+ construct and the possible introduction of PI5P4Kα activity into the molecules, our screening cascade included the measurement of ADP-Glo activity at PI5P4Kα-WT (and PI5P4Kβ-WT to fully understand emerging selectivity profiles).

PI5P4Kβ-WT = target: T4, PI5P4Kβ-WT (Homo sapiens, UniProt P78356); assay: ADP-Glo inhibition assay; settings: for PI5P4Kβ pIC50: ADP-Glo
T4 sequence (P78356 1-416): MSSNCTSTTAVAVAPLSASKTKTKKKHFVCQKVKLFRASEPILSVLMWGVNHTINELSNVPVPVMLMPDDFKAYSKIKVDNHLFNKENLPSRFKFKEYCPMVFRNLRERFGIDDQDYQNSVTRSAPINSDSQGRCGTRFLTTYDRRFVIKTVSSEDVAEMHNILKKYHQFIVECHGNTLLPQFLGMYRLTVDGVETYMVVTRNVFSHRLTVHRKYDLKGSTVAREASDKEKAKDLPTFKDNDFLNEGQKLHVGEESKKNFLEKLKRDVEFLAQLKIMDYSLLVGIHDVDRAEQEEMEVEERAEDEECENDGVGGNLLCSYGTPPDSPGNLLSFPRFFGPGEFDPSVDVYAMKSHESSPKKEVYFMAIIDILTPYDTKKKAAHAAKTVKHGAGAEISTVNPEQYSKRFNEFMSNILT
Description: as §2

PI5P4Kα [3] = settings: bioluminescence assay; cited from earlier work
PI5P4Kγ-WT [4] = target: T2, PI5P4Kγ-WT; assay: InCell Pulse cellular target engagement (thermal stabilisation) in HEK293 cells; assay type: cell-based; settings: InCell Pulse, new data
Description: The binding of compounds to PI5P4Kγ in intact cells was assessed using an InCell Pulse thermal stabilisation assay (DiscoverX). […] The plate was then incubated for 60 min in the dark prior to luminescence reading using a Pherastar FSX plate reader (BMG Labtech).
as §1

PI5P4Kγ [5] = test system: PI5P4Kγ; parameters: method as in ref 30 (1), ref 23 (2); settings: 32P-ATP/PI5P incorporation; ref 30 (1), ref 23 (2); cited from earlier work
PI5P4Kα [6] = test system: PI5P4Kα; parameters: method as in ref 23 (a number printed in a supplementary file, which may have a reference list of its own: not looked up in the article's list); settings: KINOMEscan @ 10 μM; cited from earlier work
PI5P4Kβ = target: T5, PI5P4Kβ (Homo sapiens, UniProt P78356); parameters: method as in ref 23 (a number printed in a supplementary file, which may have a reference list of its own: not looked up in the article's list); settings: KINOMEscan @ 10 μM; cited from earlier work
T5 sequence (P78356 1-416): T4 sequence (P78356 1-416)

PI5P4Kγ [7] = target: PI5P4Kγ; parameters: method as in Rosenthal 2011, Davis 2011, Karaman 2008, Klaeger 2017; settings: public kinase panel data; ref Rosenthal 2011, Davis 2011, Karaman 2008, Klaeger 2017; cited from earlier work
[8] = Chromatographic LogD (HPLC method); assay type: physicochemical; settings: pH 7.4, read-out: mchrom log D7.4
Description: 5-100% gradient of MeCN in 50mM NH4OAc in H 2O adjusted to pH 7.4. […]

[9] = mutant PI5P4Kγ+ construct, read-out: PI5P4Kγ+ pIC50 (converted)
[10] = new data, read-out: PI5P4Kγ+ IC50

SMILES | IC50 (PI5P4Kγ+; [9]) | half-life at 1 µM [1] | fraction unbound at 4 h, 10 µM (Plasma protein binding) | solubility at 2 h (Kinetic solubility) | PI5P4Kα pIC50 (PI5P4Kα-WT) | PI5P4Kβ pIC50 (PI5P4Kβ-WT) | IC50 (PI5P4Kα-WT) | chromatographic logD [8] | PI5P4Kγ pKD (PI5P4Kγ [7]) | further results
FC(F)(F)c1ccccc1-c1nc(NCc2ccccn2)c2ccccc2n1 [Compound 14] | 3.16 µM | 31 min | < 0.01 | 9 µM (≈ 3.42 µg/mL) | <4.3 | <4.6 | – | – | – | Papp A→B at 1 h, 10 µM (Caco-2 cell permeability): 85 ×10⁻⁶ cm/s; ΔTm at 63 µM (PI5P4Kγ-WT [2]): 6.3 °C
Cc1ccc(-n2ccc3c(Nc4cccc(NC(=O)c5ccc(NC(=O)/C=C/CN(C)C)cc5)c4)ncnc32)cc1 [Compound 4] | – | – | – | – | – | – | – | – | – | IC50 (PI5P4Kα [3]): 1.3 µM
CN(C)C/C=C/C(=O)Nc1ccc(C(=O)Nc2cccc(Nc3cc(-c4c[nH]c5ccccc45)ncn3)c2)cc1 [Compound 3, THZ-P1-2] | – | – | – | – | – | – | – | – | – | IC50 (PI5P4Kγ+; [10]): 0.13 µM; IC50 (PI5P4Kγ-WT [4]): 1.3 µM; IC50 (PI5P4Kα [3]): 0.95 µM
Cn1nnnc1Sc1ncnc2scc(-c3cccc(S(C)(=O)=O)c3)c12 [Compound 2, NCT-504] | – | – | – | – | – | – | 2 µM | – | – | IC50 (PI5P4Kγ+; [10]): > 50 µM; IC50 (PI5P4Kγ-WT [4]): > 50 µM; IC50 (PI5P4Kγ [5]): 16 µM; PI5P4Kα % inh (PI5P4Kα [6]): <35% inh @ 10 uM (KINONMEscan); PI5P4Kβ % inh (PI5P4Kβ): <65% inh @ 10 uM (KINONMEscan); IC50 (PI5P4Kβ-WT): > 25 µM
CC(=O)c1c(C)c2cnc(Nc3ccc(N4CCNCC4)cn3)nc2n(C2CCCC2)c1=O [Palbociclib, reference compound] | – | – | – | – | – | – | – | – | 5.8 | IC50 (PI5P4Kβ-WT): > 25.1 µM

Continued, in another order:

IC50 (PI5P4Kγ+; [9]) | half-life at 1 µM [1] | fraction unbound at 4 h, 10 µM (Plasma protein binding) | solubility at 2 h (Kinetic solubility) | PI5P4Kα pIC50 (PI5P4Kα-WT) | PI5P4Kβ pIC50 (PI5P4Kβ-WT) | IC50 (PI5P4Kα-WT) | chromatographic logD [8] | SMILES | PI5P4Kγ pKD (PI5P4Kγ [7]) | further results
10 µM | – | – | – | – | – | > 50.1 µM | – | Cc1nc(CN(C)c2ncnc3ccc(-c4ccc5c(c4)OCO5)cc23)cs1 [ML106, reference compound] | 6.4 | –
3.98 µM | – | – | – | – | – | > 50.1 µM | – | Cc1nc(CNc2ncnc3ccc(-c4ccc5c(c4)OCO5)cc23)cs1 [ML197, reference compound] | 6.6 | –
– | 100 min | 0.01 | 6 µM (≈ 2.29 µg/mL) | <4.3 | <4.6 | – | 3.2 | FC(F)(F)c1ccccc1-c1nc(NCc2ccccn2)c2cccnc2n1 [Compound 38] | – | –
10 µM | 41 min | 0.03 | 113 µM (≈ 38.9 µg/mL) | <4.3 | <4.6 | – | 4.2 | Cc1cnc(-c2ccccc2C(F)(F)F)nc1NCc1ccccn1 [Compound 35] | – | PI5P4Kγ+ LE (PI5P4Kγ+; ligand efficiency from PI5P4Kγ+ pIC50): 0.28; Papp A→B at 1 h, 10 µM (Caco-2 cell permeability): 106 ×10⁻⁶ cm/s; efflux ratio at 1 h, 10 µM (Caco-2 cell permeability; Caco-2 efflux ratio (B-A/A-B), read-out: ER): 0.5; ΔTm at 63 µM (PI5P4Kγ-WT [2]): 3.9 °C
– | 37 min | < 0.01 | < 5 µM | <4.3 | <4.6 | – | 5.7 | CC(C)c1ccccc1-c1nc(NCc2ccccn2)c2ccccc2n1 [Compound 22] | – | –
